Source: patent US7928097B2, “Photoreactive compounds and compositions” (priority 2001, dated 2011)
Where two headings read alike, the source gives them in different places.

Experiments:
[1] = tested on: polynucleotide having the sequence ATACATGGTACATA; assay: Photoactivation and binding to 14mer polynucleotide; details: 1 mM ATACATGGTACATA, blue light as example 9; NMR
Procedure: The procedure of example 9 was repeated with a 1 mM solution of a polynucleotide having the sequence ATACATGGTACATA, and using the compound obtained in example 2 in place of that obtained in example 1.

A2780 = assay: Phototoxicity, neutral red dye uptake, A2780 cells; format: cell-based
Procedure: (§1) 2×6 ft Cosmolux RA Plus (Cosmedico), 15500/100 W light sources were used, each filtered to attenuate UVB/UVC wavelengths. Irradiance was measured with a Waldmann PUMA meter, calibrated to the source using a double grating Spectroradiometer (Bentham, UK).
(§2) Immediately before use, the compounds were dissolved in warm Earle's Balanced Salt Solution (EBSS), sonicated and vortexed to assist dissolution. For experiments, cells were seeded at densities of 3- or 5×10^4 cells/cm^2. After overnight incubation, washed cells were incubated with test compounds in EBSS for 1 h at 310 K/5% CO2. Cells were then irradiated with 5 J cm^−2 glass filtered UVA (1.77 mW cm^−2: λmax 365 nm) for 50 min. Test compounds were removed and cells either prepared immediately for photogenotoxicity assays, or incubated with complete medium for 24 h before assessing phototoxicity. Control plates were treated identically to the test plates and sham irradiated.
(§3) Phototoxicity was monitored by measuring the uptake of neutral red dye into viable cells. Briefly, after irradiation cells were washed and then incubated with DMEM containing 5% FCS, 1% NEAA and 50 μg ml^−1 neutral red dye for 3 h at 310 K/5% CO2. After this time, cells were rapidly washed with formaldehyde containing 1% (w/v) CaCl2, and solubilised in 50% EtOH containing 1% acetic acid. Absorbance was read at 540 nm against a solubilisation solution as blank. The IC50 value was defined as the concentration of compound that inhibited dye uptake by 50% and was calculated using non-linear regression (Graphpad Prism). Goodness of fit was determined from the R^2 values of the curves and 95% confidence intervals.

A2780CIS = assay: Phototoxicity, neutral red dye uptake, A2780CIS cells; format: cell-based
Procedure: as §1, §2, §3

HaCaT = assay: Phototoxicity, neutral red dye uptake, HaCaT cells; format: cell-based
Procedure: as §1, §2, §3

[2] = dark, sham irradiated control, read-out: IC50 Value A2780 Dark
[3] = irradiated 5 J cm^-2 UVA, λmax 365 nm, 50 min, neutral red uptake after 24 h, read-out: IC50 Value A2780 365 nm
[4] = dark, sham irradiated control, read-out: IC50 Value A2780CIS Dark
[5] = irradiated 5 J cm^-2 UVA, λmax 365 nm, 50 min, neutral red uptake after 24 h, read-out: IC50 Value A2780CIS 365 nm
[6] = dark, sham irradiated control, read-out: IC50 Value HaCaT Dark
[7] = irradiated 5 J cm^-2 UVA, λmax 365 nm, 50 min, neutral red uptake after 24 h, read-out: IC50 Value HaCaT 365 nm

Row | Substance | Binding to 14mer polynucleotide after photoactivation [1] | IC50 (A2780; [2]) [µM] | IC50 (A2780; [3]) [µM] | IC50 (A2780CIS; [4]) [µM] | IC50 (A2780CIS; [5]) [µM] | IC50 (HaCaT; [6]) [µM] | IC50 (HaCaT; [7]) [µM]
1 | Cis,trans-[Pt^IV(en)(N3)2(OH)2] [Example 2] | binding of species containing the cis-[PtII(en)] moiety to the GG moiety had taken place |  |  |  |  |  | 
2 | Trans,trans,trans-[Pt(N3)2(OH)2(NH3)(2-pic)] [FM171] |  | > 236 | 51 | > 236 | 59.8 | > 236 | 55.3
3 | Trans,trans,trans-[Pt(N3)2(OH)2(NH3)(4-pic)] [FM174] |  |  |  |  |  | 98.8 | 6.5
4 | Trans,trans,trans-[Pt(N3)2(OH)2(NH3)(py)] [FM165] |  | > 244 | 1.9 | > 244 | 16.9 | > 244 | 6.1
5 | Trans,trans,trans-[Pt(N3)2(OH)2(NH3)(tz)] [FM172] |  | 187 | 5.4 | > 241 | 16.1 | > 241 | 5.8
